Key:
[1] = Retention time of the compound by RP-HPLC analysis; format: physicochemical
[2] = test system: A-431; test: Cytotoxicity against human A-431 cells assessed as inhibition of cell growth at 100 uM incubated for 24 hrs by MTT assay; format: toxicity, cell-based; conditions: a-431, 24 h
[3] = Cytotoxicity against human A-431 cells assessed as inhibition of cell growth at 100 uM incubated for 72 hrs by MTT assay; format: toxicity, cell-based
[4] = Biodistribution in Swiss mouse assessed as accumulation at radioactivity in liver at 3 MBq, iv and measured 1 hr post injection by gamma counter method; format: ADME, organism-based; conditions: in vivo
[5] = Octanol/water partition coefficient, logP of compound by gamma counter analysis; format: physicochemical
[6] = Cytotoxicity against human A-431 cells assessed as inhibition of cell growth at 50 uM incubated for 24 hrs by MTT assay; format: toxicity, cell-based; conditions: read-out: Activity

| SMILES | Retention_time [1] | Activity [2] | inhibition at 72 h, 100 µM [3] | also measured |
| --- | --- | --- | --- | --- |
| COCCOc1cc2ncnc(Nc3cccc(-c4cn(CCOCCOCCOCCOCCOCCOCCN)nn4)c3)c2cc1OCCOC | 17.4 min |  |  |  |
| COCCOc1cc2ncnc(Nc3cccc(-c4cn(CCOCCOCCOCCOCCOCCOCCNC(=S)Nc5ccc(CC6CN(CC(=O)O)CCN(CC(=O)O)CCN(CC(=O)O)CCN6CC(=O)O)cc5)nn4)c3)c2cc1OCCOC (stereo not drawn) | 18.5 min | Toxic | 90.9% |  |
| COCCOc1cc2ncnc(Nc3cccc(-c4cn(CCOCCOCCOCCNC(=S)Nc5ccc(CC6CN(CC(=O)O)CCN(CC(=O)O)CCN(CC(=O)O)CCN6CC(=O)O)cc5)nn4)c3)c2cc1OCCOC (stereo not drawn) | 17.2 min | Toxic | 92.6% |  |
| COCCOc1cc2ncnc(Nc3cccc(-c4cn(CCCNC(=S)Nc5ccc(CC6CN(CC(=O)O)CCN(CC(=O)O)CCN(CC(=O)O)CCN6CC(=O)O)cc5)nn4)c3)c2cc1OCCOC (stereo not drawn) | 15.9 min | Non-Toxic | 91.3% |  |
| C#Cc1cccc(Nc2ncnc3cc(OCCOC)c(OCCO[11CH3])cc23)c1 |  |  |  | Drug uptake [4]: 10.55 % ID/g; logP [5]: 3.2 |
| COCCOc1cc2ncnc(Nc3cccc(-c4cn(CCOCCOCCOCCN)nn4)c3)c2cc1OCCOC | 15.9 min |  |  |  |
| COCCOc1cc2ncnc(Nc3cccc(-c4cn(CCCN)nn4)c3)c2cc1OCCOC | 13.5 min |  |  |  |
| COCCOc1cc2ncnc(Nc3cccc(-c4cn(CC[18F])nn4)c3)c2cc1OCCOC |  |  |  | Drug uptake [4]: 17.1 % ID/g; logP [5]: 2.36 |
| C#Cc1cccc(Nc2ncnc3cc(OCCOC)c(OCCOC)cc23)c1 [ERLOTINIB] |  |  | 92.7% | inhibition at 24 h, 50 µM [6]: 29.8% |

Reference: ChEMBL document CHEMBL5214944, “Preparation of radiolabeled erlotinib analogues and analysis of the effect of linkers” (Bioorg Med Chem Lett, 2022)
